Here are results for 43 molecules from patent US20170037028A1 (BAYER PHARMA AKTIENGESELLSCHAFT, priority 2013, published 2017).

In the assay the target is T1, GLUT1 (Homo sapiens, UniProt P11166).
T1 sequence (P11166 1-492): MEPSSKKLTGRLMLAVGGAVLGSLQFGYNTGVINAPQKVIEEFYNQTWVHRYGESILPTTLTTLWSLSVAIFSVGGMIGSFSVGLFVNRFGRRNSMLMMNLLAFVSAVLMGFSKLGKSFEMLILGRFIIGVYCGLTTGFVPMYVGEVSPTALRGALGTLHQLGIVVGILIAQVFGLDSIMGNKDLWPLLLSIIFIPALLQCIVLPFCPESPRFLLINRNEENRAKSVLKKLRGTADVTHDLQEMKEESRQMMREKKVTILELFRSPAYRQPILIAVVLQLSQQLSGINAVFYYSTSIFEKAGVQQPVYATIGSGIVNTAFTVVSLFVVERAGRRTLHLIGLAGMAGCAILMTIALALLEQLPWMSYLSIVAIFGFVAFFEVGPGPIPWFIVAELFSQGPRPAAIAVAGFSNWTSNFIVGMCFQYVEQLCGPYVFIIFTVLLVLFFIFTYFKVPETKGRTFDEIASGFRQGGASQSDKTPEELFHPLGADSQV
Kind of assay: Indirect measurement of GLUT1 activity by quantification of intracellular ATP levels (glucose induced ATP increase). The class given is cell-based. Particulars: read-out: IC50 regarding glucose induced ATP increase (GLUT1 inhibition). Details: endogenous in cells; host or cells: DLD1 or CHO-K1. The essentials: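 DLD1 or CHO-K1 cells were starved overnight in glucose-free medium with 1% FCS, then combined with an oxidative phosphorylation inhibitor. GLUT1 activity was read as glucose-induced ATP increase, GLUT2 as fructose-induced. Intracellular ATP was quantified by CellTiter-Glo luminescence.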
What is called IC50 is the concentration at which inhibition is half-maximal. In the case of `Cc1nn(Cc2ccc(C(=O)O)cc2)c(C)c1NC(=O)c1cc(C(F)(F)F)nc2ccc(Br)cc12` [Example 132, 4-{[4-({[6-bromo-2-(trifluoromethyl)quinolin-4-yl]carbonyl}amino)-3,5-dimethyl-1H-pyrazol-1-yl]methyl}benzoic acid], the concentration for half-maximal inhibition (IC50) came to 5560 nM.
On to `COCCNC(=O)c1ccc(Cn2nc(C)c(NC(=O)c3cc(C(N)=O)nc4cc(F)ccc34)c2C)cc1` [Example 1421], for which the IC50 came to 39 nM.
Take `Cc1ccc2nc(C3CC3)cc(C(=O)Nc3c(C)nn(Cc4ccc(F)cc4)c3C)c2c1` [Example 7, 2-cyclopropyl-N-[1-(4-fluorobenzyl)-3,5-dimethyl-1H-pyrazol-4-yl]-6-methylquinoline-4-carboxamide]: the IC50 was 4.9 nM.
`Cc1nn(Cc2ccc(F)cc2)c(C)c1NC(=O)c1cc(C(F)(F)F)nc2ccc(-c3ccccc3)cc12` [Example 166, N-[1-(4-fluorobenzyl)-3,5-dimethyl-1H-pyrazol-4-yl]-6-phenyl-2-(trifluoromethyl)quinoline-4-carboxamide]: the half-maximal inhibitory concentration (IC50) is 41.1 nM.
As for `Cc1nn(Cc2ccc(C(=O)N[C@H]3CCCC[C@@H]3O)cc2)c(C)c1NC(=O)c1cc(C(F)(F)F)nc2ccc(Br)cc12` [Example 1215], the figure is 649 nM.
Take `COc1ccc(CCCn2nc(C)c(NC(=O)c3cc(C(F)(F)F)nc4ccc(Br)cc34)c2C)cc1` [Example 1165]: the IC50 amounted to 168 nM.
`Cc1nn(Cc2ccc(F)cc2)c(C)c1NC(=O)c1cc(C(C)C)nc2ccc(Br)cc12` [Example 2, 6-bromo-N-[1-(4-fluorobenzyl)-3,5-dimethyl-1H-pyrazol-4-yl]-2-(propan-2-yl)quinoline-4-carboxamide]: the IC50 worked out at 2.8 nM.
Regarding `Cc1nn(Cc2ccc(S(C)(=N)=O)cc2)c(C)c1NC(=O)c1cc(C(N)=O)nc2ccccc12` (racemic) [Example 377], the IC50 worked out at 1100 nM.
With `Cc1nn(Cc2ccc(S(C)(=O)=O)cc2)c(C)c1NC(=O)c1cc(C(N)=O)nc2cc(F)c(Cl)cc12` [Example 1485], the 50% inhibitory concentration (IC50) was 5.3 nM.
With `Cc1c(NC(=O)c2cc(C(N)=O)nc3cc(F)ccc23)c(C(F)(F)F)nn1Cc1ccc(C#N)cn1` [Example 360, N^4-{1-[(5-cyanopyridin-2-yl)methyl]-5-methyl-3-(trifluoromethyl)-1H-pyrazol-4-yl}-7-fluoroquinoline-2,4-dicarboxamide], the IC50 was 2 nM.
Turning to `COc1cc(Cn2nc(C(F)(F)F)c(NC(=O)c3cc(C(N)=O)nc4cccc(F)c34)c2C)ccc1C#N` [Example 1665], the IC50 was 3.8 nM.
Take `COc1ccc(CCn2nc(C)c(NC(=O)c3cc(C(F)(F)F)nc4ccc(Br)cc34)c2C)cc1` [Example 1350]: the IC50 was 41.6 nM.
For the molecule `Cc1c(NC(=O)c2cc(C(N)=O)nc3cccc(F)c23)c(C(F)(F)F)nn1Cc1cccc(C#N)c1` [Example 1581], the IC50 is 26.9 nM.
As for `Cc1nn(CC2CCN(S(C)(=O)=O)CC2)c(C)c1NC(=O)c1cc(C(F)(F)F)nc2ccc(Br)cc12` [Example 1072], the concentration for half-maximal inhibition (IC50) stood at 21 nM.
`Cc1nn(Cc2ccc(C(=O)N3CCC[C@@H]3CO)cc2)c(C)c1NC(=O)c1cc(C(F)(F)F)nc2ccc(Br)cc12` [Example 1081]: the IC50 is 26.3 nM.
Take `Cc1nn(Cc2cccc(C#N)c2)c(C)c1NC(=O)c1cc(C(N)=O)nc2cc(F)c(Cl)cc12` [Example 1456]: the IC50 is 1.5 nM.
`Cc1nn(Cc2cnn(C)c2C)c(C)c1NC(=O)c1cc(C(N)=O)nc2ccccc12` [Example 1567]: the concentration for half-maximal inhibition (IC50) is 84.4 nM.
As for `CNC(=O)N1CCC(Cn2nc(C)c(NC(=O)c3cc(C(N)=O)nc4ccccc34)c2C)CC1` [Example 1247], the figure is 1670 nM; as for `COc1cc(C#N)ccc1Cn1nc(C)c(NC(=O)c2cc(C(N)=O)nc3cccc(F)c23)c1C` [Example 1650], 10.3 nM; as for `Cc1nn(Cc2ccc(F)cc2)c(C)c1NC(=O)c1c2c(nc3ccccc13)CCC2` [Example 1249], 1670 nM.
For the molecule `COc1ccccc1Cn1nc(C(F)(F)F)c(NC(=O)c2cc(C(N)=O)nc3ccccc23)c1C` [Example 1492], the 50% inhibitory concentration (IC50) was determined as 113 nM.
Regarding `Cc1c(NC(=O)c2cc(C(N)=O)nc3cc(F)ccc23)c(C(F)(F)F)nn1Cc1cccc(C(N)=O)c1` [Example 1601], the IC50 came out at 24.6 nM.
On to `Cc1nn(Cc2ccc(C(=O)N(C)C)cn2)c(C)c1NC(=O)c1cc(C(F)(F)F)nc2ccc(Br)cc12` [Example 1221], for which the IC50 stood at 749 nM.
With `Cc1c(NC(=O)c2cc(C(N)=O)nc3ccccc23)c(C(F)(F)F)nn1Cc1cccc(C#N)c1` [Example 1579] the figure was 23.4 nM; with `COc1ccc(Cn2nc(C)c(NC(=O)c3cc(C(N)=O)nc4cc(F)c(Cl)cc34)c2C)cc1F` [Example 237, 6-chloro-7-fluoro-N^4-[1-(3-fluoro-4-methoxybenzyl)-3,5-dimethyl-1H-pyrazol-4-yl]quinoline-2,4-dicarboxamide], 0.4 nM.
Take `Cc1ccc2nc(C)cc(C(=O)Nc3c(C)nn(Cc4ncccc4C)c3C)c2c1` [Example 1285]: the IC50 was found to be 6250 nM.
As for `Cc1nn(Cc2ccc(C#N)nc2)c(C)c1NC(=O)c1cc(C(F)(F)F)nc2cc(F)c(F)cc12` [Example 183, N-{1-[(6-cyanopyridin-3-yl)methyl]-3,5-dimethyl-1H-pyrazol-4-yl}-6,7-difluoro-2-(trifluoromethyl)quinoline-4-carboxamide], the figure is 107 nM; as for `Cc1c(NC(=O)c2cc(C(N)=O)nc3cccc(O)c23)c(C(F)(F)F)nn1Cc1ccc(C#N)cc1` [Example 1565], 21 nM.
With `Cc1nn(Cc2ccc(F)c(F)c2)c(C)c1NC(=O)c1cc(C(F)(F)F)nc2c(Cl)cc(Cl)cc12` [Example 35, 6,8-dichloro-N-[1-(3,4-difluorobenzyl)-3,5-dimethyl-1H-pyrazol-4-yl]-2-(trifluoromethyl)quinoline-4-carboxamide] the figure was 25.6 nM; with `Cc1nn(Cc2ccc(C(=O)NC[C@@H](C)O)cc2)c(C)c1NC(=O)c1cc(C(F)(F)F)nc2ccc(Br)cc12` [Example 1019], 1.9 nM.
As for `Cc1nn(Cc2ccc(F)cc2)c(C)c1NC(=O)c1cc(C(=O)N(C)C)nc2ccccc12` [Example 209, N^4-[1-(4-fluorobenzyl)-3,5-dimethyl-1H-pyrazol-4-yl]-N^2,N^2-dimethylquinoline-2,4-dicarboxamide], the figure is 817 nM; as for `CC(=O)c1cccc(Cn2nc(C)c(NC(=O)c3cc(C(N)=O)nc4cccc(F)c34)c2C)c1` [Example 1624], 18.7 nM; as for `Cc1nn(Cc2ccc(C(=O)NCCC3CCCN3C)cc2)c(C)c1NC(=O)c1cc(C(F)(F)F)nc2ccc(Br)cc12` (stereo not shown) [Example 1216], 673 nM.
For the molecule `Cc1ccc2nc(C)cc(C(=O)Nc3c(C)nn(Cc4ccc(C#N)nc4)c3C)c2c1` [Example 201, N-{1-[(6-cyanopyridin-3-yl)methyl]-3,5-dimethyl-1H-pyrazol-4-yl}-2,6-dimethylquinoline-4-carboxamide], the half-inhibitory concentration (IC50) came to 557 nM.
As for `Cc1nn(Cc2ccc(C(=O)Nc3ccccc3)cc2)c(C)c1NC(=O)c1cc(C(F)(F)F)nc2ccc(Br)cc12` [Example 134, 6-bromo-N-{3,5-dimethyl-1-[4-(phenylcarbamoyl)benzyl]-1H-pyrazol-4-yl}-2-(trifluoromethyl)quinoline-4-carboxamide], the figure is 6.6 nM; as for `Cc1cc(F)ccc1Cn1nc(C(F)(F)F)c(NC(=O)c2cc(C(N)=O)nc3cccc(F)c23)c1C` [Example 1711], 4.4 nM.
Turning to `Cc1nn(Cc2ccc(C#N)cc2F)c(C)c1NC(=O)c1cc(C(N)=O)nc2cc(F)ccc12` [Example 300, N^4-[1-(4-cyano-2-fluorobenzyl)-3,5-dimethyl-1H-pyrazol-4-yl]-7-fluoroquinoline-2,4-dicarboxamide], the 50% inhibitory concentration (IC50) came to 0.5 nM.
Regarding `Cc1c(NC(=O)c2cc(C(N)=O)nc3cc(F)c(Cl)cc23)c(C(F)(F)F)nn1Cc1cc(CN2CCOCC2)on1` [Example 1676], the half-inhibitory concentration (IC50) came out at 81.8 nM.
Consider `Cc1nn(Cc2ccc(CC(=O)NCCN(C)C)cc2)c(C)c1NC(=O)c1cc(C(F)(F)F)nc2ccc(Br)cc12` [Example 1254], for which the IC50 was found to be 1980 nM.
Turning to `Cc1cccnc1Cn1nc(C)c(NC(=O)c2cc(C(F)(F)F)nc3c(Cl)cc(Cl)cc23)c1C` [Example 82, 6,8-dichloro-N-{3,5-dimethyl-1-[(3-methylpyridin-2-yl)methyl]-1H-pyrazol-4-yl}-2-(trifluoromethyl)quinoline-4-carboxamide], the IC50 is 250 nM.
`Cc1nn(Cc2ccc(C#N)cc2)c(C)c1NC(=O)c1cc(C(=O)NCCO)nc2cc(F)ccc12` [Example 1399]: the IC50 was determined as 132 nM.
With `Cc1c(NC(=O)c2cc(C(F)(F)F)nc3cc(F)c(F)cc23)c(C(F)(F)F)nn1Cc1ccc(F)cc1` [Example 193, 6,7-difluoro-N-[1-(4-fluorobenzyl)-5-methyl-3-(trifluoromethyl)-1H-pyrazol-4-yl]-2-(trifluoromethyl)quinoline-4-carboxamide] the figure was 215 nM; with `COc1cc(C(=O)Nc2c(C(F)(F)F)nn(CCc3ccc(F)cc3)c2C)c2ccccc2n1` [Example 1372], 950 nM.
